Several values for one entry are separate records, joined by “and”; a condition that tells them apart may be missing. Equal entries are not always repeated. Toxic doses and inconclusive results are not listed. Rule for the calls: active = survival T/C of 150% or more; inactive = T/C below 125% in these data.
Tested on: BDF1 mice, B16 melanoma ip, median survival T/C
Assay: NCI In Vivo Anticancer Drug Screen. Data for tumor model B16 Melanoma (intraperitoneal) in B6D2F1 (BDF1) mice
Conditions: endpoint: median survival time, higher = longer survival
Summary of the method: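 Compounds were tested in mice carrying transplantable tumors. Survival or tumor size was recorded, and each value is the treated-group measurement (T) divided by that of the vehicle-treated control group (C).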

[1] = dose: 100.0 mg/kg/injection, schedule: Q01DX009 (ip), vehicle: saline
[2] = dose: 100.0 mg/kg/injection, schedule: Q04DX003 (ip), vehicle: saline
[3] = dose: 200.0 mg/kg/injection, schedule: Q01DX009 (ip), vehicle: saline
[4] = dose: 200.0 mg/kg/injection, schedule: Q04DX003 (ip), vehicle: saline
[5] = dose: 400.0 mg/kg/injection, schedule: Q04DX003 (ip), vehicle: saline
[6] = dose: 100.0 mg/kg/injection, schedule: Q04DX003 (ip), vehicle: Klucel (hydroxypropylcellulose) (HPC)
[7] = dose: 200.0 mg/kg/injection, schedule: Q04DX003 (ip), vehicle: Klucel (hydroxypropylcellulose) (HPC)
[8] = dose: 12.5 mg/kg/injection, schedule: Q01DX009 (ip), vehicle: Klucel (hydroxypropylcellulose) (HPC)
[9] = dose: 25.0 mg/kg/injection, schedule: Q01DX009 (ip), vehicle: Klucel (hydroxypropylcellulose) (HPC)
[10] = dose: 50.0 mg/kg/injection, schedule: Q01DX009 (ip), vehicle: Klucel (hydroxypropylcellulose) (HPC)
[11] = dose: 25.0 mg/kg/injection, schedule: Q01DX009 (ip), vehicle: saline with Tween-80
[12] = dose: 50.0 mg/kg/injection, schedule: Q01DX009 (ip), vehicle: saline with Tween-80
[13] = dose: 100.0 mg/kg/injection, schedule: Q01DX009 (ip), vehicle: saline with Tween-80
[14] = dose: 25.0 mg/kg/injection, schedule: Q01DX009 (ip), vehicle: saline
[15] = dose: 50.0 mg/kg/injection, schedule: Q01DX009 (ip), vehicle: saline
[16] = dose: 400.0 mg/kg/injection, schedule: Q01DX009 (ip), vehicle: saline
[17] = dose: 100.0 mg/kg/injection, schedule: Q01DX009 (ip), vehicle: Klucel (hydroxypropylcellulose) (HPC)

Measured: T/C

CCN1/C(=C/C(C)=C/c2sc3ccccc3[n+]2CC)Sc2ccccc21
inactive: dose: 0.03 mg/kg/injection, schedule: Q01DX009 (ip), vehicle: saline with Tween-80 104 % of control | dose: 0.05 mg/kg/injection, schedule: Q01DX009 (ip), vehicle: saline with Tween-80 100 % of control | dose: 0.1 mg/kg/injection, schedule: Q01DX009 (ip), vehicle: saline with Tween-80 100 % of control

CC(C)NCC(=O)c1ccc(O)c(O)c1
inactive: dose: 5.0 mg/kg/injection, schedule: Q01DX009 (ip), vehicle: saline 115 % of control | dose: 10.0 mg/kg/injection, schedule: Q01DX009 (ip), vehicle: saline 114 % of control | dose: 20.0 mg/kg/injection, schedule: Q01DX009 (ip), vehicle: saline 116 % of control | dose: 40.0 mg/kg/injection, schedule: Q01DX009 (ip), vehicle: saline 110 % of control | [1] 113 % of control | [2] 108 % of control | [3] 106 % of control | [4] 106 % of control | [5] 97 % of control

CCOC(=O)C(Cc1ccccc1)NP(=O)(OCCCl)OCCCl (stereo unspecified)
inactive: [6] 104 % of control | [7] 86 % of control

O=C(O)C1CC2C3CC(C(=O)O)C(C3)C2C1 (stereo unspecified)
inactive: [2] 108 % of control | [4] 104 % of control | [5] 105 % of control

NCC(=O)Nc1ccc(O)cc1
inactive: dose: 150.0 mg/kg/injection, schedule: Q01DX009 (ip), vehicle: saline 94 % of control | dose: 300.0 mg/kg/injection, schedule: Q01DX009 (ip), vehicle: saline 105 % of control

CCO/C([O-])=C/[P+](c1ccccc1)(c1ccccc1)c1ccccc1
inactive: [8] 103 % of control | [9] 103 % of control | [10] 100 % of control

C/C=C(\CC)C(=O)NC(N)=O
inactive: dose: 12.5 mg/kg/injection, schedule: Q04DX003 (ip), vehicle: Klucel (hydroxypropylcellulose) (HPC) 93 % of control | dose: 25.0 mg/kg/injection, schedule: Q04DX003 (ip), vehicle: Klucel (hydroxypropylcellulose) (HPC) 100 % of control | dose: 50.0 mg/kg/injection, schedule: Q04DX003 (ip), vehicle: Klucel (hydroxypropylcellulose) (HPC) 93 % of control | [7] 95 % of control

CCNC(=O)Nc1ccc(C)cc1C
inactive: [6] 106 % of control | [7] 96 % of control | dose: 400.0 mg/kg/injection, schedule: Q04DX003 (ip), vehicle: Klucel (hydroxypropylcellulose) (HPC) 106 % of control

OCC1OC(n2cnc3cc(Cl)c(Cl)cc32)C(O)C1O (stereo unspecified)
inactive: dose: 6.25 mg/kg/injection, schedule: Q01DX009 (ip), vehicle: saline with Tween-80 101 % of control and 117 % of control | dose: 12.5 mg/kg/injection, schedule: Q01DX009 (ip), vehicle: saline with Tween-80 100 % of control and 104 % of control and 113 % of control | [11] 97 % of control and 113 % of control and 114 % of control | [12] 107 % of control and 116 % of control | [13] 102 % of control and 121 % of control

COCC(O)Cn1ccnc1[N+](=O)[O-] (stereo unspecified)
inactive: dose: 12.5 mg/kg/injection, schedule: Q01DX009 (ip), vehicle: saline 111 % of control | dose: 12.5 mg/kg/injection, schedule: Q01DX009 (ip), vehicle: suspension in saline 124 % of control | dose: 12.5 mg/kg/injection, schedule: Q01DX009 (ip), vehicle: water 95 % of control | [14] 105 % of control | dose: 25.0 mg/kg/injection, schedule: Q01DX009 (ip), vehicle: suspension in saline 124 % of control | dose: 25.0 mg/kg/injection, schedule: Q01DX009 (ip), vehicle: water 100 % of control | [15] 107 % of control | dose: 50.0 mg/kg/injection, schedule: Q01DX009 (ip), vehicle: suspension in saline 103 % of control | dose: 50.0 mg/kg/injection, schedule: Q01DX009 (ip), vehicle: water 111 % of control | [1] 101 % of control | dose: 100.0 mg/kg/injection, schedule: Q01DX009 (ip), vehicle: suspension in saline 110 % of control | dose: 100.0 mg/kg/injection, schedule: Q01DX009 (ip), vehicle: water 100 % of control | [3] 107 % of control | dose: 200.0 mg/kg/injection, schedule: Q01DX009 (ip), vehicle: suspension in saline 124 % of control | dose: 200.0 mg/kg/injection, schedule: Q01DX009 (ip), vehicle: water 103 % of control | [16] 104 % of control | dose: 400.0 mg/kg/injection, schedule: Q01DX009 (ip), vehicle: water 100 % of control

COc1cc(-c2ccc(Nc3ccccc3C(=O)O)c(OC)c2)ccc1N
inactive: [11] 105 % of control | [12] 104 % of control

CCCCNC(=O)Nc1ccc(C(=O)OCC(C)C)cc1
inactive: [13] 99 % of control | dose: 200.0 mg/kg/injection, schedule: Q01DX009 (ip), vehicle: saline with Tween-80 96 % of control

COc1ccccc1N1C(=O)CSC1=S
inactive: [8] 95 % of control | [9] 105 % of control | [10] 87 % of control | [17] 105 % of control

C=CCc1ccccc1C
inactive: [17] 104 % of control | dose: 200.0 mg/kg/injection, schedule: Q01DX009 (ip), vehicle: Klucel (hydroxypropylcellulose) (HPC) 105 % of control | dose: 400.0 mg/kg/injection, schedule: Q01DX009 (ip), vehicle: Klucel (hydroxypropylcellulose) (HPC) 90 % of control

CC(CCCN(CCCl)CCCl)Nc1ccnc2cc(Cl)ccc12 (stereo unspecified)
inactive: dose: 0.25 mg/kg/injection, schedule: Q01DX009 (ip), vehicle: saline + alcohol 94 % of control | dose: 0.25 mg/kg/injection, schedule: Q04DX003 (ip), vehicle: saline + alcohol 100 % of control | dose: 0.5 mg/kg/injection, schedule: Q01DX009 (ip), vehicle: saline + alcohol 94 % of control | dose: 0.5 mg/kg/injection, schedule: Q04DX003 (ip), vehicle: saline + alcohol 106 % of control | dose: 1.0 mg/kg/injection, schedule: Q01DX009 (ip), vehicle: saline + alcohol 97 % of control | dose: 1.0 mg/kg/injection, schedule: Q04DX003 (ip), vehicle: saline + alcohol 112 % of control | dose: 2.0 mg/kg/injection, schedule: Q01DX009 (ip), vehicle: saline + alcohol 88 % of control | dose: 2.0 mg/kg/injection, schedule: Q04DX003 (ip), vehicle: saline + alcohol 118 % of control

CCCCCC(CN(C)C)C(O)/C=C/c1ccccc1Cl (stereo unspecified)
inactive: dose: 6.0 mg/kg/injection, schedule: Q01DX009 (ip), vehicle: saline 96 % of control | dose: 12.0 mg/kg/injection, schedule: Q01DX009 (ip), vehicle: saline 98 % of control | [14] 103 % of control

O=C1Nc2ccc(Cl)cc2C(c2ccccc2)=NC1O (stereo unspecified)
inactive: dose: 6.25 mg/kg/injection, schedule: Q01DX009 (ip), vehicle: saline 116 % of control | [15] 95 % of control | [1] 95 % of control | [3] 89 % of control | [16] 89 % of control

O=C(Nc1cccc(Cl)c1)OCC(Cl)(Cl)Cl
inactive: dose: 75.0 mg/kg/injection, schedule: Q01DX009 (ip), vehicle: Klucel (hydroxypropylcellulose) (HPC) 109 % of control | dose: 150.0 mg/kg/injection, schedule: Q01DX009 (ip), vehicle: Klucel (hydroxypropylcellulose) (HPC) 103 % of control | dose: 300.0 mg/kg/injection, schedule: Q01DX009 (ip), vehicle: Klucel (hydroxypropylcellulose) (HPC) 103 % of control

Reference: PubChem BioAssay AID192 (DTP/NCI, 2004)
